US20260158043A1, “STEROID AS A MODULATOR OF GABAA RECEPTOR” (UMECRINE COGNITION AB, priority 2021, published 2026)
Several values for one entry are separate records, joined by “and”; a condition that tells them apart may be missing. Identical values can stand only once. Entries after “also recorded” stand apart in the source; their conditions may differ.

Experiments:
GABAA receptor = conditions: taught in WO 09/142594, table 3; cited from earlier work
[1] = biological target: T1, human α3β3γ2 GABAA receptor subtype (Homo sapiens, UniProt P18507+P28472+P34903); test: Patch-clamp (Dynaflow) of GABA-mediated current in HEK-293 cells expressing α3β3γ2L GABAA receptor; format: cell-based
T1 construct: expressed in transfected cells
T1 sequence (P34903 29-492): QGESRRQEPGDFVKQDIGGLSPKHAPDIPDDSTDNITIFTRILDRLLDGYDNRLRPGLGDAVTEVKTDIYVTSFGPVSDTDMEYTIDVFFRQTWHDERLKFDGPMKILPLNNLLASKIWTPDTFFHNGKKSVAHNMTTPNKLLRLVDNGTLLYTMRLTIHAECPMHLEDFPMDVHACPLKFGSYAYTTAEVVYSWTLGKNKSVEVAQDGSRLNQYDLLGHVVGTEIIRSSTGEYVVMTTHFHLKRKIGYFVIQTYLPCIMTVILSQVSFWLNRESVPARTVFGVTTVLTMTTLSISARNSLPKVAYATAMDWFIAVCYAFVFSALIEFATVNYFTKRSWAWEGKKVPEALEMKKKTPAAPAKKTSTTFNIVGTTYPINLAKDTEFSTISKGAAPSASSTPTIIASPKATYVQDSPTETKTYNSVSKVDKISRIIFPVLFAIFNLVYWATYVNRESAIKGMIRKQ
T1 sequence (P28472 26-473): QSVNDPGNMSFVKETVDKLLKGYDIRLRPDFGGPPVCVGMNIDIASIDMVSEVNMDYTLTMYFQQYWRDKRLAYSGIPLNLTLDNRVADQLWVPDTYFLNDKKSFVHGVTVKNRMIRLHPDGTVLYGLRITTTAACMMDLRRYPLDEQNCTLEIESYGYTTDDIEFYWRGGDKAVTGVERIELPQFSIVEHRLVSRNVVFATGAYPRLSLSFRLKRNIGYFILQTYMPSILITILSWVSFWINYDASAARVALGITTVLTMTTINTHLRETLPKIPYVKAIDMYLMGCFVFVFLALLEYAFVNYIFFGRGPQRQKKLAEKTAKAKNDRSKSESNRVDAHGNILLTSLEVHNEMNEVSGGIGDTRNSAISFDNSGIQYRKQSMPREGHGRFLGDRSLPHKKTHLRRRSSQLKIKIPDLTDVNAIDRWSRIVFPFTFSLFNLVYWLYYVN
T1 sequence (P18507 40-475): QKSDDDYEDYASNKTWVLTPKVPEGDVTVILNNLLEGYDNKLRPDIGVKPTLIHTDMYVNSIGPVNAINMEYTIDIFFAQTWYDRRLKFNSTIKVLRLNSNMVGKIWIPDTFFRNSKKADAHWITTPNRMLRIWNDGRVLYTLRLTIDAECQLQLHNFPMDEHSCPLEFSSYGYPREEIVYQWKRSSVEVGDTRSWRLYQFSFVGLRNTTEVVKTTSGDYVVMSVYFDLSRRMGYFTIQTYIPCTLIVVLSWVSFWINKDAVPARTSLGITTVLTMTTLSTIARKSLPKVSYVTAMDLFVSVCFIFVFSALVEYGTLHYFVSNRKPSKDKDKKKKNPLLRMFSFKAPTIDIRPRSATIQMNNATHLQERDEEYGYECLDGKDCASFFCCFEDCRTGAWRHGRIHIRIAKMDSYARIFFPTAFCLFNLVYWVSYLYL
Excerpt: (§1) Aim: To investigate the effect of 3α-ethynyl-3β-hydroxy-5α-androstan-17-one on the GABAA receptor function both in absence and in presence of the GAMS tetrahydrodeoxycorticosterone (THDOC) by the Dynaflow™ system (Fluicell) on HEK-293 cells recombinantly expressing human α1β2γ2L GABAA receptor or human α3β3γ2 GABAA receptor subtype. In these tests the protocol was optimized to be similar to the physiological conditions in the synaptic cleft.
(§2) Preparation of cell lines: Cell lines permanently expressing a functional human GABAA receptor was made as follows. The GABAA receptor subunits α1β2γ2L or α3β3γ2 including introduced Kozac sequences just before the start codons were subcloned into mammalian expression vectors comprising Geneticin, Hygromycin B, and Zeocin resistance, respectively. A HEK-293 cell line stably expressing the three GABAA receptor subunits (α1β2γ2L, α3β3γ2) separately for α1β2γ2L and α3β3γ2 subunit composition was produced by transfection of the subunits one at a time. The transfection was followed by selection with the appropriate antibiotics, cell separation with the use of subunit specific antibodies (β2 and γ2, Abcam, Upstate/Chemicon/Milipore, Sigma Aldrich), and production of single cell colonies. Produced cell lines were analysed with immunocytochemistry for the three GABAA receptor subunits, followed by selection of a suitable cell line showing for the GABAA receptor normal and good reactivity towards GABA and THDOC.
(§3) HEK-293 cells (obtained from Pasteur Institute, Paris, France), permanently transfected with the human 1β2γ2L or α3β3γ2 GABAA receptor subtypes, were seeded at a density of 3×10^4/25 cm^2 in a culture flask. The transfected cells were used for patch-clamp experiments 3 days after seeding. When using the cells for patch-clamp experiments the cells were washed twice with oxygen-bubbled EC-solution (see below). About 5 mL EC was then added and the cells were kept in the incubator for about 15 minutes. After 15 minutes the cells came loose from the bottom of the flask and were separated by carefully sucking a couple of times with a Pasteur pipette.
(§4) Dynaflow™ system with Resolve chips (Fluicell) was used for all patch-clamp experiments. The DF-16 Proll chips (Fluicell) used have non-sticky inserts for the wells. The channel width was 150 μm and the height 50 μm. The well volume was 280 μL. Run time at the […] is […]. The pump settings were as follow: Omnifix 2 mL syringe with inner diameter of 9.65 mm was used. The syringe pump flow rate for DF-16 Pro II chip was 26 μL/min.
Steroids and GABA: GABA (Sigma Aldrich) was dissolved in EC-solution by ultrasound for about 40 minutes to the concentration of 10 mM in room temperature. All steroids were dissolved to the concentration of 6 mM in DMSO. The DMSO concentration was 0.1% in all end-solutions, including the wash solution (EC) and the solution with GABA alone. End-solutions are the solutions added into the wells of the chip.
Electrophysioloqy: Patch electrodes were pulled from 1.5 mm O.D., 0.86 mm I.D. borosilicate capillary glass without filament. […] The intracellular solution consisted of (in mM): 140 Cs-gluconate, 3.0 NaCl, 1.2 MgCl2, 1.0 EGTA, 10 HEPES. pH was adjusted to 7.2 with CsOH. The extracellular (EC) solution used during recordings contained (in mM): 137 NaCl, 5.0 KCl, 1.0 CaCl2), 1.2 MgCl2, 10 HEPES, 10 glucose. pH was adjusted with NaOH to 7.4. All chemicals in the intracellular and extracellular solutions were obtained from Sigma-Aldrich. After compensating for the liquid junction potential, a steady holding potential of −17 mV was used in all experiments. In physiological conditions the HEK-293 has a resting potential at −40 mV and a low concentration of chloride ions inside the cell. By using the holding potential of −17 mV and the intracellular solution with low chloride ion concentration the chloride ions flux into the cell when the receptors are activated. […]

[2] = Weight increase in growing male rats, experiment 2 (10 days s.c., with progesterone + estradiol); format: in vivo, Male Wistar rats; conditions: for Weight difference compared to vehicle (Mean±SE) / Weight difference versus E+P control rats (Mean±SE): 10 days, n=9
Description: Animals: Male Wistar rats were kept in group cages, with three animals per cage, from delivery and throughout the period of experiments. The individual animals were marked so that they could be identified throughout the experiment duration. The animals weight an average of 152 g upon arrival. A reversed light dark (12:12 h) cycle was used with the dark period onset at 0600 hrs. Altogether fifty-six (56) rats were used in this study (experiment 1+2). The animals were delivered from the breeder Taconic (Denmark). The study protocol was approved by the Regional Ethics Committee of Umea University, Sweden.
Feeding: Standard chow and water were available ad libitum. A reversed 12-h dark-light cycle with lights off at 10.00 am and lights on at 22.00 pm was used. For identification, the rats were marked with a permanent marker on the tail. To avoid the endogenous allopregnanolone fluctuations that are present in the oestrous cycle of female rats, male rats were chosen (Frye et al. 2000). The animals were allowed to acclimatize for at least 3 weeks before start of the experimental sessions. During this period, the rats were repeatedly handled and allowed habituation to the new environment and to all new procedures, to minimize stress during the experiments.
After 14 days of triad housing, handling and injection training of the animals, the animals were treated for 5 days with IV injections in experiment 1 and 10 days with a daily subcutaneous injection of the assigned treatment in experiment 2 (Table 3 and 4). The injections were given at 08.00 every morning. The animals were weighed the day before onset of the treatment and at the last day of injection i.e. on the 5th or 10th day of treatment. Weight was taken at the time of the last injection. […] The results are shown in FIG. 2 (experiment 1) and FIG. 3 (experiment 2), respectively.

[3] = biological target: T2, human α1β2γ2L GABAA receptor (Homo sapiens, UniProt P14867+P18507+P47870); test: Patch-clamp (Dynaflow) of GABA-mediated current in HEK-293 cells expressing α1β2γ2L GABAA receptor; format: cell-based
T2 construct: expressed in transfected cells
T2 sequence (P14867 28-456): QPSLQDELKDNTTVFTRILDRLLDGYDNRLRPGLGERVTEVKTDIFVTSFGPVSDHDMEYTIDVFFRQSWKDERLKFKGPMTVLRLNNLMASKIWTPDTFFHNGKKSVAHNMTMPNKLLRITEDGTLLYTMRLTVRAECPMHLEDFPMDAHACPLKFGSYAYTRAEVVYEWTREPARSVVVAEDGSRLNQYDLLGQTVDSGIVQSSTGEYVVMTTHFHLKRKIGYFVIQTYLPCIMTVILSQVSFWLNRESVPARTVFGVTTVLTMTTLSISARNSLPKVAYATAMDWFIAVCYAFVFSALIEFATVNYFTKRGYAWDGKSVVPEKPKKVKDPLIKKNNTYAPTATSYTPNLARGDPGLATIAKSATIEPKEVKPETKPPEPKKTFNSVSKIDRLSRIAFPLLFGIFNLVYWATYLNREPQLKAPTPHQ
T2 sequence (P47870 25-512 limits assumed): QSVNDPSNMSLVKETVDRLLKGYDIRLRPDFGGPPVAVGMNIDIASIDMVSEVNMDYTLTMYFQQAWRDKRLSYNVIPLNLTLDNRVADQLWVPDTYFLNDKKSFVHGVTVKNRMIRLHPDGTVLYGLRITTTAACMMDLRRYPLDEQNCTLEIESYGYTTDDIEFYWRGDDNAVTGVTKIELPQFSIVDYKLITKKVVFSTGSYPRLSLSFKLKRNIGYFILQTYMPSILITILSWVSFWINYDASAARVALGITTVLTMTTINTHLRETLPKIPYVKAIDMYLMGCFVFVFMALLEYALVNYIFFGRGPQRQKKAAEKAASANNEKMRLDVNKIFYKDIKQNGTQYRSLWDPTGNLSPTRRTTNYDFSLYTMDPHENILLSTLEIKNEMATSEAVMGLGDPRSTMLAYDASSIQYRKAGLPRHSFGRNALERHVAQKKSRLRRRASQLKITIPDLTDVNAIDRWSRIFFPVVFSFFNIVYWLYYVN
T2 sequence (P18507 40-475): as the sequence (P18507 40-475) above
Excerpt: as §1, §2, §3, §4
Steroids and GABA: GABA (Sigma Aldrich) was dissolved in EC-solution by ultrasound for about 40 minutes to the concentration of 10 mM in room temperature. All steroids were dissolved to the concentration of 6 mM in DMSO. […]

[4] = biological target: T3, human α4β3δ GABAA receptor (Homo sapiens, UniProt O14764+P28472+P48169); test: Patch-clamp (Dynaflow) of GABA-mediated current at α4β3δ GABAA receptor; format: cell-based; conditions: agonist effect
T3 construct: expressed in transfected cells
T3 sequence (P48169 36-554): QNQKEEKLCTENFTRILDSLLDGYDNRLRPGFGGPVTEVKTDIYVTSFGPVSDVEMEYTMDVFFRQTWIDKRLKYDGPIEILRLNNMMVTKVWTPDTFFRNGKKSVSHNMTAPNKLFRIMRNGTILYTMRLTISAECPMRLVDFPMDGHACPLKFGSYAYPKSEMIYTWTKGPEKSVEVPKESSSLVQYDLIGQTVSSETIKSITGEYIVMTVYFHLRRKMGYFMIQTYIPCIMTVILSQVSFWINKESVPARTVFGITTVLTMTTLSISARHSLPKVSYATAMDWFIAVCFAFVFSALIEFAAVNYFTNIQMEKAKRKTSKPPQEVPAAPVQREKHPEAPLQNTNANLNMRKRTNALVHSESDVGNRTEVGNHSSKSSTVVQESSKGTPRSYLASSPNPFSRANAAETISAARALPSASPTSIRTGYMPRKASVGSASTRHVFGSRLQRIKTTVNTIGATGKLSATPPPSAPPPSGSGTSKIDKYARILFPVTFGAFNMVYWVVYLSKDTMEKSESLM
T3 sequence (P28472 26-473): as the sequence (P28472 26-473) above
T3 sequence (O14764 17-452 limits assumed): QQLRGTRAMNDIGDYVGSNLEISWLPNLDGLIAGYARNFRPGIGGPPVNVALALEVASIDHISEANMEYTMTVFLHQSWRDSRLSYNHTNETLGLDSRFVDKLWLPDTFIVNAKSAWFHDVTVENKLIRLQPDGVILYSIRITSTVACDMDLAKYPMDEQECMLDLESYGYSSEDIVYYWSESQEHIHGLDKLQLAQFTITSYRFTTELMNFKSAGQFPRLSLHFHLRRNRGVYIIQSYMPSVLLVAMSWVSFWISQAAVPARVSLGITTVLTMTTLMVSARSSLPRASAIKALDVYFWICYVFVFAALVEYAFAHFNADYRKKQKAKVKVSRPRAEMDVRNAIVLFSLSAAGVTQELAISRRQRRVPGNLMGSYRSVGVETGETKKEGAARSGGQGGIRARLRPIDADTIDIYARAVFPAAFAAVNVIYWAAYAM
Excerpt: (§5) Aim: the aim of this project was to study the effect of 3α-ethynyl-3β-hydroxy-5α-androstan-17-one and the positive GABAA receptor modulator THDOC on GABA-mediated current response, at human α1β2γ2L, α2β3γ2S, α4β3δ and α5β3γ2L subunit GABAA receptors.
(§6) Study design: The current response mediated by chloride ion flux through the GABAA receptors expressing the α1β2γ2L, α2β3γ2S, α3β3γ2L, α4β3δ and α5β3γ2L subunit was studied with the use of patch clamp technique combined with the Dynaflow™ application system and the Resolve chip. This provides rapid applications of and removal of substances. The material, protocol and methods were identical to the ones used in Examples 1 and 2. 1 μM 3α-ethynyl-3β-hydroxy-5α-androstan-17-one was studied on GABA mediated current response at α1β2γ2L, α2β3γ2S, α4β3δ and α5β3γ2L GABAA receptor subtypes (FIG. 4, Table 6). In addition, the effect of 1-1000 nM THDOC was studied on GABA mediated current response at the α1β2γ2L, α3β2γ2, and α5β3γ2L receptor subtypes (Table 8). The binding site of THDOC is in the […] region of the receptor. To achieve stable response, the cells were exposed to steroid (THDOC) in 20 seconds before GABA application.
(§7) The amount GABA used depends on the receptor subtype intra or extra-synaptic type, α1β2γ2L=30 μM; α2β3γ2S=45 μM; α4β3δ=1 μM and α5β3γ2L=0.3 μM GABA.

[5] = biological target: α3β2γ2 GABAA receptor subtype (Homo sapiens, UniProt P28472+P34903); test: Patch-clamp (Dynaflow), THDOC on GABA-mediated current at α3β2γ2 receptor subtype; format: cell-based; conditions: 1-1000 nM THDOC 20 s preincubation, 100 μM GABA 1 s, read-out: Emax for effect on GABA mediated current response
Sequence of α3β2γ2 GABAA receptor subtype (P34903 29-492): as the sequence (P34903 29-492) above
Sequence of α3β2γ2 GABAA receptor subtype (P28472 26-473): as the sequence (P28472 26-473) above
Sequence of α3β2γ2 GABAA receptor subtype (P18507 40-475 partner): as the sequence (P18507 40-475) above
Description: as §6
(§8) THDOC: The following standard protocol was used for the different receptor subtypes: • α1β2γ2L: 20 s preincubation of 30-1000 nM THDOC 40 ms application of 30 μM GABA±steroids. • α3β2γ2: 20 s preincubation of 1-1000 nM THDOC followed by 1 s application of 100 μM GABA±steroids. • α5β3γ2L: 20 s preincubation of 30-1000 nM THDOC followed by 6 s application of 0.3 μM GABA±steroids.

[6] = biological target: T4, human α5β3γ2L GABAA receptor (Homo sapiens, UniProt P18507+P28472+P31644); test: Patch-clamp (Dynaflow) of GABA-mediated current at α5β3γ2L GABAA receptor; format: cell-based
T4 construct: expressed in transfected cells
T4 sequence (P31644 32-462): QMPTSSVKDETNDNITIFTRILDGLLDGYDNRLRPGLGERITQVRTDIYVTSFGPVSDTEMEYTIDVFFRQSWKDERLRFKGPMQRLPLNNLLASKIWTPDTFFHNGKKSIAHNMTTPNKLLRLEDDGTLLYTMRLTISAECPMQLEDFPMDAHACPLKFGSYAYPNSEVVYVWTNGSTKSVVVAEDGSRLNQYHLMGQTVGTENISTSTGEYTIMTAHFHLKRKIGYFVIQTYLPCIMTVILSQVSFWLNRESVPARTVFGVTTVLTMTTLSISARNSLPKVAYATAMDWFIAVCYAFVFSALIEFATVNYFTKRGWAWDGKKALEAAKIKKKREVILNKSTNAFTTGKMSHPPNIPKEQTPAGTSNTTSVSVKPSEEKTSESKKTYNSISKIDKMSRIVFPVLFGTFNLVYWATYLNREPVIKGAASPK
T4 sequence (P28472 26-473): as the sequence (P28472 26-473) above
T4 sequence (P18507 40-475): as the sequence (P18507 40-475) above
Excerpt: as §5, §6, §7, §8

[7] = 1 mg/kg s.c. + 5 mg/kg progesterone + 10 μg/kg 17β-estradiol
[8] = 5 mg/kg s.c. + 5 mg/kg progesterone + 10 μg/kg 17β-estradiol

C#C[C@]1(O)CC[C@@]2(C)[C@@H](CC[C@@H]3[C@@H]2CC[C@]2(C)C(=O)CC[C@@H]32)C1 [3α-ethynyl-3β-hydroxy-5α-androstan-17-one]
Effect as a GAMSA or GAMS (GABAA receptor): no effect | Effect on 100 μM GABA-mediated current response, Mean ± SEM % ([1]; 0.003 μM compound + 100 μM GABA, α3β3γ2L): +2.5 ± 2.9% | Own effect, Baseline shift ([1]; 0.003 μM compound, absence of GABA, α3β3γ2L): −1.0 ± 0.4 pA | Effect on 100 μM GABA-mediated current response, Mean ± SEM % ([1]; 0.01 μM compound + 100 μM GABA, α3β3γ2L): −3.0 ± 2.3% | Own effect, Baseline shift ([1]; 0.01 μM compound, absence of GABA, α3β3γ2L): −0.7 ± 0.7 pA | Effect on 100 μM GABA-mediated current response, Mean ± SEM % ([1]; 0.03 μM compound + 100 μM GABA, α3β3γ2L): −2.0 ± 1.0% | Own effect, Baseline shift ([1]; 0.03 μM compound, absence of GABA, α3β3γ2L): −0.8 ± 1.2 pA | Effect on 100 μM GABA-mediated current response, Mean ± SEM % ([1]; 0.1 μM compound + 100 μM GABA, α3β3γ2L): −4.0 ± 3.0% | Own effect, Baseline shift ([1]; 0.1 μM compound, absence of GABA, α3β3γ2L): −1.0 ± 0.8 pA | Effect on 100 μM GABA-mediated current response, Mean ± SEM % ([1]; 0.3 μM compound + 100 μM GABA, α3β3γ2L): −10% and −10 ± 2.3% | Own effect, Baseline shift ([1]; 0.3 μM compound, absence of GABA, α3β3γ2L): +0.9 ± 0.5 pA | Own effect, Baseline shift ([1]; 1 μM compound, absence of GABA, α3β3γ2L): −1.2 ± 0.5 pA | Effect on 100 μM GABA-mediated current response, Mean ± SEM % ([1]; 3 μM compound + 100 μM GABA, α3β3γ2L): −74 ± 0.9% | Own effect, Baseline shift ([1]; 3 μM compound, absence of GABA, α3β3γ2L): −0.4 ± 0.4 pA | Effect on 100 μM GABA-mediated current response, Mean ± SEM % ([1]; 10 μM compound + 100 μM GABA, α3β3γ2L): −76 ± 1.9% | Own effect, Baseline shift ([1]; 10 μM compound, absence of GABA, α3β3γ2L): +1.1 + 2.4 pA | Activation of the α3β3γ2L GABAA receptor in absence of GABA ([1]; 0.003-10 μM, absence of GABA): do not activate | Imax on 100 μM GABA-mediated current response ([1]; 0.003-10 μM, best fit curve, α3β3γ2L): −78% | IC50 ([1]; 0.003-10 μM, best fit curve, α3β3γ2L, read-out: IC50 on 100 μM GABA-mediated current response): 800 nM | Weight difference compared to vehicle (Mean±SE) [2, 7]: -33 ± 4.4 g | Weight difference versus E+P control rats (Mean±SE) [2, 7]: -23.9 ± 4.4 g | Weight difference compared to vehicle (Mean±SE) [2, 8]: -29.6 ± 5.2 g | Weight difference versus E+P control rats (Mean±SE) [2, 8]: -20.4 ± 5.2 g | Difference in weight after 10 days of treatment compared to vehicle ([2]; s.c., 10 days of treatment): over 20% | Antagonism of 100 nM THDOC-enhancement at α1β2γ2 ([3]; 1 μM compound + THDOC + GABA): no significant agonistic or antagonistic effect; also recorded: No effect

C[C@]12CC[C@@H](O)C[C@@H]1CC[C@@H]1[C@@H]2CC[C@]2(C)[C@@H](C(=O)CO)CC[C@@H]12 [THDOC, 3α, 21-dihydroxy-5α-pregnan-20-one]
Effect on GABA-mediated current at α4β3δ (in words) [4]: significantly enhances | Emax [5]: 80% | Effect on GABA-mediated current at α5β3γ2L (in words) ([6]; agonist effect): significantly enhances | EC50 ([6]; α5β3γ2L, 30-1000 nM THDOC 20 s preincubation, 0.3 μM GABA 6 s, read-out: EC50 for effect on GABA mediated current response): 68 nM | Emax ([6]; α5β3γ2L, 30-1000 nM THDOC 20 s preincubation, 0.3 μM GABA 6 s, read-out: Emax for effect on GABA mediated current response): 131% | Emax ([3]; HEK293, α1β2γ2L, 30-1000 nM THDOC 20 s preincubation, 30 μM GABA 40 ms, read-out: Emax for effect on GABA mediated current response): 115% | Effect on GABA-mediated current at α1β2γ2L (in words) ([3]; agonist effect): significantly enhances | EC50 ([3]; α1β2γ2L, 30-1000 nM THDOC 20 s preincubation, 30 μM GABA 40 ms, read-out: EC50 for effect on GABA mediated current response): 70 nM
